Source: patent publication US8906904B2, “Alkoxy pyrazoles as soluble guanylate cyclase activators” (Boehringer Ingelheim International GmbH, priority 2012, dated 2014)
≈ marks a conversion by molar mass, not a printed value.

Tests used:
[1] = Assessment of solubility (McIlvaine buffers, 24 h shake, UPLC-UV); type: physicochemical; conditions: kinetic from dmso stock
Method in brief: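 Compounds from 10 mM DMSO stocks were shaken for 24 h at room temperature in McIlvaine buffers at pH 2.2, 4.5 and 6.8 (2.5% v/v DMSO final), then filtered. Filtrates were quantified by UPLC-UV at 254 nm against a 50:50 acetonitrile/water reference assumed fully dissolved, as a single determination.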

[2] = human liver microsome (HLM) metabolic stability assay; type: in vitro ADME; conditions: human liver microsomes; % hepatic blood flow calculated from t1/2
Method in brief: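 Compounds at 1 uM incubated with human liver microsomes plus NADPH at 37° C., sampled at 0, 5, 15, 30 and 60 min into cold acetonitrile and quantified by LC/MS/MS. t½ from the slope of ln % remaining vs time; CLint, CLh and % Qh derived from it (n=1).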

COc1c(C(=O)O)cnn1-c1cccc(-c2cccc(C)c2OCc2ccc3c(c2C)CCN(C2COC2)C3)n1 [Compound 16]
solubility at 24 h ([1]; pH 2.2, aqueous buffer): 95 µg/mL (≈ 176 µM) | solubility at 24 h ([1]; pH 4.5, aqueous buffer): 71 µg/mL (≈ 131 µM) | solubility at 24 h ([1]; pH 6.8, aqueous buffer): 81 µg/mL (≈ 150 µM) | HLM (% Qh) [2]: <24 % Qh

CCOc1c(C(=O)O)cnn1-c1cccc(-c2cccc(C)c2OCc2ccc3c(c2C)CCN(C[C@H]2CCCCO2)C3)n1 [Compound 232]
solubility at 24 h ([1]; pH 2.2, aqueous buffer): 93 µg/mL (≈ 156 µM) | solubility at 24 h ([1]; pH 4.5, aqueous buffer): 74 µg/mL (≈ 124 µM) | solubility at 24 h ([1]; pH 6.8, aqueous buffer): 63 µg/mL (≈ 106 µM) | HLM (% Qh) [2]: <24 % Qh

COc1c(C(=O)O)cnn1-c1cccc(-c2cccc(C)c2OCc2cc(F)c3c(c2)CCN([C@H]2CCOC2)C3)n1 [Compound 254]
solubility at 24 h ([1]; pH 2.2, aqueous buffer): 100 µg/mL (≈ 179 µM) | solubility at 24 h ([1]; pH 4.5, aqueous buffer): 64 µg/mL (≈ 115 µM) | solubility at 24 h ([1]; pH 6.8, aqueous buffer): 80 µg/mL (≈ 143 µM) | HLM (% Qh) [2]: <24 % Qh

COc1c(C(=O)O)cnn1-c1cccc(-c2cccc(C)c2OCc2cc(F)c3c(c2)CCN([C@@H]2CCOC2)C3)n1 [Compound 253]
solubility at 24 h ([1]; pH 2.2, aqueous buffer): 100 µg/mL (≈ 179 µM) | solubility at 24 h ([1]; pH 4.5, aqueous buffer): 75 µg/mL (≈ 134 µM) | solubility at 24 h ([1]; pH 6.8, aqueous buffer): 81 µg/mL (≈ 145 µM) | HLM (% Qh) [2]: <24 % Qh

CCOc1c(C(=O)O)cnn1-c1cccc(-c2cccc(C)c2OCc2ccc3c(c2C)CCN([C@@H]2CCOC2)CC3)n1 [Compound 227]
solubility at 24 h ([1]; pH 2.2, aqueous buffer): 90 µg/mL (≈ 154 µM) | solubility at 24 h ([1]; pH 4.5, aqueous buffer): 73 µg/mL (≈ 125 µM) | solubility at 24 h ([1]; pH 6.8, aqueous buffer): 77 µg/mL (≈ 132 µM) | HLM (% Qh) [2]: 25 % Qh

CCOc1c(C(=O)O)cnn1-c1cccc(-c2cccc(C)c2OCc2cc(C)c3c(c2)CCN(CC2COCCO2)C3)n1 (stereo not shown) [Compound 243]
solubility at 24 h ([1]; pH 2.2, aqueous buffer): 100 µg/mL (≈ 167 µM) | solubility at 24 h ([1]; pH 4.5, aqueous buffer): 82 µg/mL (≈ 137 µM) | solubility at 24 h ([1]; pH 6.8, aqueous buffer): 81 µg/mL (≈ 135 µM) | HLM (% Qh) [2]: <24 % Qh

COc1c(C(=O)O)cnn1-c1cccc(-c2cccc(C)c2OCc2ccc3c(c2Cl)CCN(CC(C)(C)C)C3)n1 [Compound 21]
solubility at 24 h ([1]; pH 2.2, aqueous buffer): 96 µg/mL (≈ 167 µM) | solubility at 24 h ([1]; pH 4.5, aqueous buffer): 62 µg/mL (≈ 108 µM) | solubility at 24 h ([1]; pH 6.8, aqueous buffer): 60 µg/mL (≈ 104 µM) | HLM (% Qh) [2]: <24 % Qh

COc1c(C(=O)O)cnn1-c1cccc(-c2cccc(C)c2OCc2ccc3c(c2)C(C)(C)CN(C2CCOC2)C3)n1 (stereo not shown) [Compound 217]
solubility at 24 h ([1]; pH 2.2, aqueous buffer): 97 µg/mL (≈ 171 µM) | solubility at 24 h ([1]; pH 4.5, aqueous buffer): 73 µg/mL (≈ 128 µM) | solubility at 24 h ([1]; pH 6.8, aqueous buffer): 69 µg/mL (≈ 121 µM) | HLM (% Qh) [2]: 89 % Qh

CCOc1c(C(=O)O)cnn1-c1cccc(-c2cccc(C)c2OCc2ccc3c(c2C)CCN(C[C@H]2CCOC2)C3)n1 [Compound 193]
solubility at 24 h ([1]; pH 2.2, aqueous buffer): 100 µg/mL (≈ 172 µM) | solubility at 24 h ([1]; pH 4.5, aqueous buffer): 80 µg/mL (≈ 137 µM) | solubility at 24 h ([1]; pH 6.8, aqueous buffer): 73 µg/mL (≈ 125 µM) | HLM (% Qh) [2]: <24 % Qh

COc1c(C(=O)O)cnn1-c1cccc(-c2cccc(C)c2OCc2ccc3c(c2F)CCN([C@H]2CCOC2)C3)n1 [Compound 251]
solubility at 24 h ([1]; pH 2.2, aqueous buffer): 100 µg/mL (≈ 179 µM) | solubility at 24 h ([1]; pH 4.5, aqueous buffer): 72 µg/mL (≈ 129 µM) | solubility at 24 h ([1]; pH 6.8, aqueous buffer): 77 µg/mL (≈ 138 µM) | HLM (% Qh) [2]: <24 % Qh

COc1c(C(=O)O)cnn1-c1cccc(-c2ccccc2OCc2ccc3c(c2)CCN(C2CCOCC2)C3)n1 [Compound 209]
solubility at 24 h ([1]; pH 2.2, aqueous buffer): 110 µg/mL (≈ 203 µM) | solubility at 24 h ([1]; pH 4.5, aqueous buffer): 81 µg/mL (≈ 150 µM) | solubility at 24 h ([1]; pH 6.8, aqueous buffer): 84 µg/mL (≈ 155 µM) | HLM (% Qh) [2]: <24 % Qh

COc1c(C(=O)O)cnn1-c1cccc(-c2cccc(C)c2OCc2ccc3c(c2C)CCN(C2CCOCC2)C3)n1 [Compound 27]
solubility at 24 h ([1]; pH 2.2, aqueous buffer): 110 µg/mL (≈ 193 µM) | solubility at 24 h ([1]; pH 4.5, aqueous buffer): 88 µg/mL (≈ 155 µM) | solubility at 24 h ([1]; pH 6.8, aqueous buffer): 90 µg/mL (≈ 158 µM) | HLM (% Qh) [2]: <24 % Qh

COCC(C)N1CCc2cc(COc3c(C)cccc3-c3cccc(-n4ncc(C(=O)O)c4OC)n3)cc(C)c2C1 (stereo not shown) [Compound 244]
solubility at 24 h ([1]; pH 2.2, aqueous buffer): 120 µg/mL (≈ 216 µM) | solubility at 24 h ([1]; pH 4.5, aqueous buffer): 99 µg/mL (≈ 178 µM) | solubility at 24 h ([1]; pH 6.8, aqueous buffer): 98 µg/mL (≈ 176 µM) | HLM (% Qh) [2]: <24 % Qh

CCOc1c(C(=O)O)cnn1-c1cccc(-c2cccc(C)c2OCc2cc(C)c3c(c2)CCN(C(C)COC)C3)n1 (stereo not shown) [Compound 210]
solubility at 24 h ([1]; pH 2.2, aqueous buffer): 110 µg/mL (≈ 193 µM) | solubility at 24 h ([1]; pH 4.5, aqueous buffer): 87 µg/mL (≈ 152 µM) | solubility at 24 h ([1]; pH 6.8, aqueous buffer): 87 µg/mL (≈ 152 µM) | HLM (% Qh) [2]: <24 % Qh

COc1c(C(=O)O)cnn1-c1cccc(-c2cccc(C)c2OCc2ccc3c(c2C)CCN([C@@H]2CCOC2)CC3)n1 [Compound 207]
solubility at 24 h ([1]; pH 2.2, aqueous buffer): 82 µg/mL (≈ 144 µM) | solubility at 24 h ([1]; pH 4.5, aqueous buffer): 68 µg/mL (≈ 120 µM) | solubility at 24 h ([1]; pH 6.8, aqueous buffer): 73 µg/mL (≈ 128 µM) | HLM (% Qh) [2]: <24 % Qh

CCOc1c(C(=O)O)cnn1-c1cccc(-c2cccc(C)c2OCc2ccc3c(c2C)CCN(C2CCOCC2)C3=O)n1 [Compound 194]
solubility at 24 h ([1]; pH 2.2, aqueous buffer): 0.68 µg/mL (≈ 1.14 µM) | solubility at 24 h ([1]; pH 4.5, aqueous buffer): 2.5 µg/mL (≈ 4.19 µM) | solubility at 24 h ([1]; pH 6.8, aqueous buffer): 78 µg/mL (≈ 131 µM) | HLM (% Qh) [2]: <24 % Qh

COc1c(C(=O)O)cnn1-c1cccc(-c2cccc(C)c2OCc2ccc3c(c2)C(C)(C)CN(C2CCCOC2)C3)n1 (stereo not shown) [Compound 218]
solubility at 24 h ([1]; pH 2.2, aqueous buffer): 120 µg/mL (≈ 206 µM) | solubility at 24 h ([1]; pH 4.5, aqueous buffer): 85 µg/mL (≈ 146 µM) | solubility at 24 h ([1]; pH 6.8, aqueous buffer): 75 µg/mL (≈ 129 µM) | HLM (% Qh) [2]: 89 % Qh

COc1ccc(OCc2ccc3c(c2C)CCN(C2CCOCC2)C3)c(-c2cccc(-n3ncc(C(=O)O)c3OC)n2)c1 [Compound 182]
solubility at 24 h ([1]; pH 2.2, aqueous buffer): 110 µg/mL (≈ 188 µM) | solubility at 24 h ([1]; pH 4.5, aqueous buffer): 81 µg/mL (≈ 139 µM) | solubility at 24 h ([1]; pH 6.8, aqueous buffer): 81 µg/mL (≈ 139 µM) | HLM (% Qh) [2]: <24 % Qh

COc1c(C(=O)O)cnn1-c1cccc(-c2cccc(C)c2OCc2cc(C)c3c(c2)CCN(C2CCOC2)C3)n1 (stereo not shown) [Compound 242]
solubility at 24 h ([1]; pH 2.2, aqueous buffer): 110 µg/mL (≈ 198 µM) | solubility at 24 h ([1]; pH 4.5, aqueous buffer): 79 µg/mL (≈ 142 µM) | solubility at 24 h ([1]; pH 6.8, aqueous buffer): 78 µg/mL (≈ 141 µM) | HLM (% Qh) [2]: <24 % Qh
